In patent US12521393B2, “Cytotoxicity targeting chimeras for CCR2-expressing cells” (GLAXOSMITHKLINE INTELLECTUAL PROPERTY DEVELOPMENT LIMITED, priority 2021, dated 2026):

System: endogenous target monocytes in human PBMC
Assay: PBMC ex vivo monocyte depletion flow cytometry assay (Example 200)
Type: cell-based
Details: with anti-cotinine antibody (SEQ ID NO: 11/12), 18-24 hours, EC50 in molar, read-out: Ex Vivo Depletion Assay pEC50 (converted)
Outline: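 Monocyte depletion is reported as pEC50, averaged or given individually across runs, and read by flow cytometry staining CD45, CD14 and CD4 with a viability dye. Compounds, diluted four-fold over 11 points from 1 mM DMSO stocks, were combined with 30 μg/mL Fc-enhanced anti-cotinine antibody and human PBMC, then incubated 18-24 h at 37° C.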

| SMILES | EC50 [nM] |
| --- | --- |
| CC(C)N(C)[C@@H]1CC[C@H](N2CC[C@H](Nc3ncnc4ccc(C(F)(F)F)cc34)C2=O)[C@H](NC(=O)[C@H]2CC[C@H](NC(=O)CCOC[C@H]3CC[C@H](COCCNC(=O)[C@H]4CC(=O)N(C)[C@@H]4c4cccnc4)CC3)CC2)C1 [Example 53, (2S,3S)-N-(2-(((1R,4S)-4-((3-(((1R,4R)-4-(((1R,2S,5R)-5-(Isopropyl(methyl)amino)-2-((S)-2-oxo-3-((6-(trifluoromethyl)quinazolin-4-yl)amino)pyrrolidin-1-yl)cyclohexyl)carbamoyl)cyclohexyl)amino)-3-oxopropoxy)methyl)cyclohexyl)methoxy)ethyl)-1-methyl-5-oxo-2-(pyridin-3-yl)pyrrolidine-3-carboxamide] | 0.631 |
| CC(C)N(C)[C@@H]1CC[C@H](N2CC[C@H](Nc3ncnc4ccc(C(F)(F)F)cc34)C2=O)[C@H](NC(=O)[C@H]2CC[C@H](NC(=O)CCCOC[C@H]3CC[C@@H](COCCNC(=O)[C@H]4CC(=O)N(C)[C@@H]4c4cccnc4)CC3)CC2)C1 [Example 57, (2S,3S)-N-(2-(((1S,4R)-4-((4-(((1R,4R)-4-(((1R,2S,5R)-5-(Isopropyl(methyl)amino)-2-((S)-2-oxo-3-((6-(trifluoromethyl)quinazolin-4-yl)amino)pyrrolidin-1-yl)cyclohexyl)carbamoyl)cyclohexyl)amino)-4-oxobutoxy)methyl)cyclohexyl)methoxy)ethyl)-1-methyl-5-oxo-2-(pyridin-3-yl)pyrrolidine-3-carboxamide] | 1.58 |
| CC(C)N(C)[C@@H]1CC[C@H](N2CC[C@H](Nc3ncnc4ccc(C(F)(F)F)cc34)C2=O)[C@H](NC(=O)[C@H]2C[C@@H](NC(=O)CCOCCOCCOCCNC(=O)[C@H]3CC(=O)N(C)[C@@H]3c3cccnc3)C2)C1 [Example 24, (2S,3S)-N-(2-(2-(2-(3-(((1S,3s)-3-(((1R,2S,5R)-5-(Isopropyl(methyl)amino)-2-((S)-2-oxo-3-((6-(trifluoromethyl)quinazolin-4-yl)amino)pyrrolidin-1-yl)cyclohexyl)carbamoyl)cyclobutyl)amino)-3-oxopropoxy)ethoxy)ethoxy)ethyl)-1-methyl-5-oxo-2-(pyridin-3-yl)pyrrolidine-3-carboxamide] | 1.26 |
| CC(C)N(C)[C@@H]1CC[C@H](N2CC[C@H](Nc3ncnc4ccc(C(F)(F)F)cc34)C2=O)[C@H](NC(=O)C2CCC(NC(=O)CCOCCNC(=O)CCOCCNC(=O)[C@H]3CC(=O)N(C)[C@@H]3c3cccnc3)CC2)C1 (stereo partly drawn) [Example 48, (2S,3S)-N-(2-(3-((2-(3-(((1R,4r)-4-(((1R,2S,5R)-5-(Isopropyl(methyl)amino)-2-((S)-2-oxo-3-((6-(trifluoromethyl)quinazolin-4-yl)amino)pyrrolidin-1-yl)cyclohexyl)carbamoyl)cyclohexyl)amino)-3-oxopropoxy)ethyl)amino)-3-oxopropoxy)ethyl)-1-methyl-5-oxo-2-(pyridin-3-yl)pyrrolidine-3-carboxamide] | 2 |
| CC(C)N(C)[C@@H]1CC[C@H](N2CC[C@H](Nc3ncnc4ccc(C(F)(F)F)cc34)C2=O)[C@H](NC(=O)[C@H]2CC[C@H](NC(=O)CCCC(=O)NCCCOCCCNC(=O)[C@H]3CC(=O)N(C)[C@@H]3c3cccnc3)CC2)C1 [Example 19, N1-((1R,4r)-4-(((1R,2S,5R)-5-(Isopropyl(methyl)amino)-2-((S)-2-oxo-3-((6-(trifluoromethyl)quinazolin-4-yl)amino)pyrrolidin-1-yl)cyclohexyl)carbamoyl)cyclohexyl)-N5-(3-(3-((2S,3S)-1-methyl-5-oxo-2-(pyridin-3-yl)pyrrolidine-3-carboxamido)propoxy)propyl)glutaramide] | 0.794 |
| CC(C)N(C)[C@@H]1CC[C@H](N2CC[C@H](Nc3ncnc4ccc(C(F)(F)F)cc34)C2=O)[C@H](NC(=O)[C@H]2CC[C@H](NC(=O)CCCO[C@H]3CC[C@H](OCCNC(=O)[C@H]4CC(=O)N(C)[C@@H]4c4cccnc4)CC3)CC2)C1 [Example 1, (2S,3S)-N-(2-(((1R,4S)-4-(4-(((1R,4R)-4-(((1R,2S,5R)-5-(Isopropyl(methyl)amino)-2-((S)-2-oxo-3-((6-(trifluoromethyl)quinazolin-4-yl)amino)pyrrolidin-1-yl)cyclohexyl)carbamoyl)cyclohexyl)amino)-4-oxobutoxy)cyclohexyl)oxy)ethyl)-1-methyl-5-oxo-2-(pyridin-3-yl)pyrrolidine-3-carboxamide] | 1.58 |
| CCN1C(=O)C[C@H](C(=O)NCCOCCOCCOCCC(=O)N[C@H]2CC[C@@H](C(=O)N[C@@H]3C[C@H](N(C)C(C)C)CC[C@@H]3N3CC[C@H](Nc4ncnc5ccc(C(F)(F)F)cc45)C3=O)CC2)[C@H]1c1cccnc1 [Example 34, (2S,3S)-1-ethyl-N-(2-(2-(2-(3-((cis-4-(((1R,2S,5R)-5-(isopropyl(methyl)amino)-2-((S)-2-oxo-3-((6-(trifluoromethyl)quinazolin-4-yl)amino)pyrrolidin-1-yl)cyclohexyl)carbamoyl)cyclohexyl)amino)-3-oxopropoxy)ethoxy)ethoxy)ethyl)-5-oxo-2-(pyridin-3-yl)pyrrolidine-3-carboxamide] | 1.58 |
| CC(C)N(C)[C@@H]1CC[C@H](N2CC[C@H](Nc3ncnc4ccc(C(F)(F)F)cc34)C2=O)[C@H](NC(=O)[C@H]2CC[C@@H](NC(=O)COCCNC(=O)COCCNC(=O)[C@H]3CC(=O)N(C)[C@@H]3c3cccnc3)CC2)C1 [Example 99, (2S,3S)-N-(2-(2-((2-(2-(((1S,4s)-4-(((1R,2S,5R)-5-(Isopropyl(methyl)amino)-2-((S)-2-oxo-3-((6-(trifluoromethyl)quinazolin-4-yl)amino)pyrrolidin-1-yl)cyclohexyl)carbamoyl)cyclohexyl)amino)-2-oxoethoxy)ethyl)amino)-2-oxoethoxy)ethyl)-1-methyl-5-oxo-2-(pyridin-3-yl)pyrrolidine-3-carboxamide] | 0.794 |
| CN1C(=O)C[C@H](C(=O)NCCOCCOCCOCCC(=O)N[C@H]2CC[C@@H](C(=O)N[C@@H]3C[C@H](NC(C)(C)C)CC[C@@H]3N3CC[C@H](Nc4ncnc5ccc(C(F)(F)F)cc45)C3=O)CC2)[C@H]1c1cccnc1 [Example 23, (2S,3S)-N-(2-(2-(2-(3-(((1S,4s)-4-(((1R,2S,5R)-5-(tert-Butylamino)-2-((S)-2-oxo-3-((6-(trifluoromethyl)quinazolin-4-yl)amino)pyrrolidin-1-yl)cyclohexyl)carbamoyl)cyclohexyl)amino)-3-oxopropoxy)ethoxy)ethoxy)ethyl)-1-methyl-5-oxo-2-(pyridin-3-yl)pyrrolidine-3-carboxamide] | 2 |
| CC(C)N(C)[C@@H]1CC[C@H](N2CC[C@H](Nc3ncnc4ccc(C(F)(F)F)cc34)C2=O)[C@H](NC(=O)[C@H]2CC[C@@H](NC(=O)CCCO[C@H]3CC[C@H](NC(=O)CCNC(=O)[C@@H]4CC(=O)N(C)[C@H]4c4cccnc4)CC3)CC2)C1 [Example 52, (2S,3S)-N-(3-(((1R,4S)-4-(4-(((1S,4S)-4-(((1R,2S,5R)-5-(Isopropyl(methyl)amino)-2-((S)-2-oxo-3-((6-(trifluoromethyl)quinazolin-4-yl)amino)pyrrolidin-1-yl)cyclohexyl)carbamoyl)cyclohexyl)amino)-4-oxobutoxy)cyclohexyl)amino)-3-oxopropyl)-1-methyl-5-oxo-2-(pyridin-3-yl)pyrrolidine-3-carboxamide] | 0.2 |
| CC(C)N(C)[C@@H]1CC[C@H](N2CC[C@H](Nc3ncnc4ccc(C(F)(F)F)cc34)C2=O)[C@H](NC(=O)[C@H]2CC[C@@H](NC(=O)CCOCCNC(=O)CCNC(=O)CCNC(=O)[C@H]3CC(=O)N(C)[C@@H]3c3cccnc3)CC2)C1 [Example 182, (2S,3S)-N-(3-((3-((2-(3-(((1S,4s)-4-(((1R,2S,5R)-5-(Isopropyl(methyl)amino)-2-((S)-2-oxo-3-((6-(trifluoromethyl)quinazolin-4-yl)amino)pyrrolidin-1-yl)cyclohexyl)carbamoyl)cyclohexyl)amino)-3-oxopropoxy)ethyl)amino)-3-oxopropyl)amino)-3-oxopropyl)-1-methyl-5-oxo-2-(pyridin-3-yl)pyrrolidine-3-carboxamide] | 0.158 |
| CC(C)N(C)[C@@H]1CC[C@H](N2CC[C@H](Nc3ncnc4ccc(C(F)(F)F)cc34)C2=O)[C@H](NC(=O)CCOCCC(=O)N[C@H]2C[C@H](C(=O)NCCOCCNC(=O)[C@H]3CC(=O)N(C)[C@@H]3c3cccnc3)C2)C1 [Example 187] | 0.251 |
| CC(C)N(C)[C@@H]1CC[C@H](N2CC[C@H](Nc3ncnc4ccc(C(F)(F)F)cc34)C2=O)[C@H](NC(=O)[C@H]2CC[C@H](C(=O)NCCCOCCCCOCCCNC(=O)[C@H]3CC(=O)N(C)[C@@H]3c3cccnc3)CC2)C1 [Example 194, (1r,4R)-N^1-((1R,2S,5R)-5-(Isopropyl(methyl)amino)-2-((S)-2-oxo-3-((6-(trifluoromethyl)quinazolin-4-yl)amino)pyrrolidin-1-yl)cyclohexyl)-N^4-(3-(4-(3-((2S,3S)-1-methyl-5-oxo-2-(pyridin-3-yl)pyrrolidine-3-carboxamido)propoxy)butoxy)propyl)cyclohexane-1,4-dicarboxamide] | 0.631 |
| CC(C)N(C)[C@@H]1CC[C@H](N2CC[C@H](Nc3ncnc4ccc(C(F)(F)F)cc34)C2=O)[C@H](NC(=O)[C@H]2CC[C@@H](CC(=O)CCCOC[C@H]3CC[C@H](COCCNC(=O)[C@H]4CC(=O)N(C)[C@@H]4c4cccnc4)CC3)CC2)C1 [Example 60, (2S,3S)-N-(2-(((1R,4S)-4-(((5-((1S,4S)-4-(((1R,2S,5R)-5-(Isopropyl(methyl)amino)-2-((S)-2-oxo-3-((6-(trifluoromethyl)quinazolin-4-yl)amino)pyrrolidin-1-yl)cyclohexyl)carbamoyl)cyclohexyl)-4-oxopentyl)oxy)methyl)cyclohexyl)methoxy)ethyl)-1-methyl-5-oxo-2-(pyridin-3-yl)pyrrolidine-3-carboxamide] | 0.631 |
